Where two headings read alike, the source gives them in different places.
Key:
A549 cells = test: in vitro antiproliferation assay, A549 (lung); assay type: cell-based
Summary of the method: (§1)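 Standard in vitro antiproliferation assays on tumour cell lines, including A549 and H1299 (both lung); IC50 values determined.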

H1299 cells = test: in vitro antiproliferation assay, H1299 (lung); assay type: cell-based
Summary of the method: as §1

ACHN = test: in vitro antiproliferation assay, ACHN (kidney/p53 wt); assay type: cell-based
Experimental: (§2) The IC50 values of various compounds against a various different tumor cell lines were determined using standard in vitro antiproliferation assays. The tumor cell lines tested were as follows: A549 (lung); H1299 (lung), ACHN (kidney/p53 wt), CAKI (renal cell carcinoma), NCI-H460 (lung); HCT116 (colon/p53w0; HELA (cervix/p53 wt), HUH7 (liver/p53 wt), HUVEC (primary endothelial), LNCAP (prostate), HT-29 (colon); MCF-7 (breast); MCF-7 (breast/ER positive), MDA MB435S (breast); MDA MB231 (breast/ER negative), DU145 (prostate); BxPC-3 (pancreatic); SKOV-3 (ovarian); HepG2 (hepatic), NDHF primary normal human dermal fibroblast), SKMEL28 (breast/p53mut), SKMEL5 (breast/p53 wt), U20S (bone) and PC3 (prostate). […] A blank indicates the specified compound was not tested against the specified cell line.
(§3) Many of the compounds were tested against other cell lines. Their activity is reported in TABLE 15, below, where +”, “−”, “−/+” or “+/−” values are as described for TABLES 1-14. Where the cell line includes a value in a parenthetical, the value indicates the seeding density at which the assay was performed

CAKI = test: in vitro antiproliferation assay, CAKI (renal cell carcinoma); assay type: cell-based
Experimental: as §2, §3

HCT116 = test: in vitro antiproliferation assay, HCT116 (colon); assay type: cell-based
Summary of the method: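 IC50 is the reported value, taken from a conventional in vitro antiproliferation assay. Seeding density is indicated by any parenthetical figure attached to the cell line.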

HELA = test: in vitro antiproliferation assay, HELA (cervix/p53 wt); assay type: cell-based
Experimental: as §2, §3

HUH7 = test: in vitro antiproliferation assay, HUH7 (liver/p53 wt); assay type: cell-based
Experimental: as §2, §3

HUVEC = test: in vitro antiproliferation assay, HUVEC (primary endothelial); assay type: cell-based
Experimental: as §2, §3

LNCAP = test: in vitro antiproliferation assay, LNCAP (prostate); assay type: cell-based
Experimental: as §2, §3

MCF-7 = test: in vitro antiproliferation assay, MCF-7 (breast/ER positive); assay type: cell-based
Experimental: as §2, §3

MDA MB231 = test: in vitro antiproliferation assay, MDA MB231 (breast/ER negative); assay type: cell-based
Experimental: as §2, §3

NDHF = test: in vitro antiproliferation assay, NDHF (primary normal human dermal fibroblast); assay type: cell-based
Experimental: as §2, §3

SKMEL28 = test: in vitro antiproliferation assay, SKMEL28 (breast/p53mut); assay type: cell-based
Experimental: as §2, §3

SKMEL5 = test: in vitro antiproliferation assay, SKMEL5; assay type: cell-based
Experimental: as §2, §3

U20S = test: in vitro antiproliferation assay, U20S (bone); assay type: cell-based
Experimental: as §2, §3

[1] = tested on: tumors generated from A549 cells; test: in vivo xenograft experiment, tumors generated from A549 cells; conditions: mice
Experimental: Compounds 107, 858, 164, 211 and 156 were tested for their ability to shrink tumors generated from A549 cells in standard xenograft experiments. Compounds 141 and 211 were tested against H1299 tumors.

PC3 = test: in vitro antiproliferation assay, PC3 (prostate); assay type: cell-based
Experimental: as §2, §3

[2] = HCT116 (colon), read-out: HCT116

Compound | IC50 (ACHN) | IC50 (CAKI) | IC50 (HCT116; [2]) | IC50 (HELA) | IC50 (HUH7) | IC50 (HUVEC) | IC50 (LNCAP) | IC50 (NDHF) | IC50 (SKMEL28) | IC50 (SKMEL5) | IC50 (U20S) | also measured
COC(=O)N1CCN(c2ccc(Nc3ncc(F)c(NC4CCC4)n3)cc2)CC1 [compound 107] | ≤ 20 µM | ≤ 20 µM | > 20 µM | ≤ 20 µM | ≤ 20 µM | ≤ 20 µM | ≤ 20 µM | ≤ 20 µM | ≤ 20 µM | ≤ 20 µM | ≤ 20 µM | IC50 (A549 cells; IC50 class against A549 (lung) tumor cells): ≤ 20 µM; IC50 (H1299 cells; IC50 class against H1299 (lung) tumor cells): ≤ 20 µM; IC50 (MCF-7; MCF7, seeding density 2K, read-out: MCF7(2K)): ≤ 20 µM; IC50 (MCF-7; MCF7, seeding density 4K, read-out: MCF7(4K)): ≤ 20 µM; IC50 (MDA MB231; MDA-MB-231, seeding density 2K, read-out: MDA-MB-231(2K)): ≤ 20 µM; IC50 (MDA MB231; MDA-MB-231, seeding density 4K, read-out: MDA-MB-231(4K)): ≤ 20 µM
CN1CCN(c2ccc(Nc3ncc(F)c(NC4CCCCC4)n3)cc2)CC1.Cl [compound 156] |  |  |  |  |  |  |  |  |  |  |  | Preliminary Results: reduction in tumor size ([1]; 50 mg/kg Bid, daily, 0.9% Saline): 60.4%
Fc1cnc(Nc2cccc(-c3ncco3)c2)nc1Nc1cc(C2CC2)[nH]n1 [compound 211] |  |  |  |  |  |  |  |  |  |  |  | IC50 (A549 cells; Homo sapiens, IC50 class against A549 (lung) tumor cells): ≤ 20 µM; IC50 (H1299 cells; Homo sapiens, NCI-H1299, IC50 class against H1299 (lung) tumor cells): ≤ 20 µM; IC50 (HCT116; Homo sapiens, HCT-116, HCT116 (colon), read-out: HCT116): ≤ 20 µM; IC50 (HELA; Homo sapiens): ≤ 20 µM; IC50 (MCF-7; Homo sapiens, MCF7, seeding density 2K, read-out: MCF7(2K)): ≤ 20 µM; IC50 (MCF-7; Homo sapiens, MCF7, seeding density 4K, read-out: MCF7(4K)): ≤ 20 µM; IC50 (MDA MB231; Homo sapiens, MDA-MB-231, seeding density 2K, read-out: MDA-MB-231(2K)): ≤ 20 µM; IC50 (MDA MB231; Homo sapiens, MDA-MB-231, seeding density 4K, read-out: MDA-MB-231(4K)): ≤ 20 µM; Preliminary Results: reduction in tumor size ([1]; 25 mg/kg bid, 100% DMSO): 23.2%
COc1cc(Nc2ncc(F)c(Nc3ccc4c(c3)OCCO4)n2)cc(OC)c1 [compound 512] | ≤ 20 µM |  | > 20 µM | ≤ 20 µM | ≤ 20 µM | ≤ 20 µM | ≤ 20 µM | ≤ 20 µM | ≤ 20 µM | ≤ 20 µM | ≤ 20 µM | IC50 (A549 cells; Table 5, in vitro antiproliferation, A549 (lung) cells): ≤ 20 µM; IC50 (H1299 cells; Table 5, in vitro antiproliferation, H1299 (lung) cells): ≤ 20 µM; IC50 (PC3): > 20 µM
CCOC(=O)c1cc2cccc(Nc3ncc(F)c(Nc4cc(C)cc(C)c4)n3)c2[nH]1 [compound 646] | ≤ 20 µM | ≤ 20 µM | > 20 µM | ≤ 20 µM | ≤ 20 µM | ≤ 20 µM | ≤ 20 µM | ≤ 20 µM | ≤ 20 µM | ≤ 20 µM | ≤ 20 µM | IC50 (A549 cells; Table 7, in vitro antiproliferation, A549 (lung) cells): ≤ 20 µM; IC50 (H1299 cells; Table 7, in vitro antiproliferation, H1299 (lung) cells): ≤ 20 µM; IC50 (HCT116; Table 7, in vitro antiproliferation, colon cells, read-out: HTC116): ≤ 20 µM
Cc1cc(Nc2ncc(F)c(Nc3cc(C)c(O)c(Cl)c3)n2)cc(Cl)c1O [compound 942] | ≤ 20 µM | ≤ 20 µM | ≤ 20 µM | ≤ 20 µM | ≤ 20 µM | ≤ 20 µM | ≤ 20 µM | ≤ 20 µM | ≤ 20 µM | ≤ 20 µM | ≤ 20 µM | IC50 (A549 cells; A549 (lung) cells, antiproliferation): ≤ 20 µM; IC50 (H1299 cells; H1299 (lung) cells, antiproliferation): ≤ 20 µM

Reference: patent US8809341B2, “2,4-pyrimidinediamine compounds and uses as anti-proliferative agents” (Rigel Pharmaceuticals, Inc., priority 2003, dated 2014)
